Experimental data from PubChem BioAssay AID256 (DTP/NCI, 2004).
“And” between values parts separate entries of the source, which are not always exact repeats. Equal entries are not always repeated. Toxic doses and inconclusive results are not listed.

Tested on: CD2F1 mice, L1210 leukemia ip, survival T/C
Experiment: NCI In Vivo Anticancer Drug Screen. Data for tumor model L1210 Leukemia (intraperitoneal) in CD2F1 (CDF1) mice
Conditions: higher = longer survival
Outline: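 Mice carrying a transplanted tumor received test compound or vehicle alone. The value is the measurement in the treated group divided by that in the vehicle-treated control group.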

[1] = endpoint: mean survival time, dose: 100.0 mg/kg/injection, schedule: Q04DX003 (ip), vehicle: saline with Tween-80
[2] = endpoint: mean survival time, dose: 200.0 mg/kg/injection, schedule: Q04DX003 (ip), vehicle: saline with Tween-80
[3] = endpoint: mean survival time, dose: 400.0 mg/kg/injection, schedule: Q04DX003 (ip), vehicle: saline with Tween-80
[4] = endpoint: mean survival time, dose: 50.0 mg/kg/injection, schedule: Q01DX009 (ip), vehicle: saline with Tween-80
[5] = endpoint: mean survival time, dose: 100.0 mg/kg/injection, schedule: Q01DX001 (ip), vehicle: saline with Tween-80
[6] = endpoint: mean survival time, dose: 100.0 mg/kg/injection, schedule: Q01DX009 (ip), vehicle: saline with Tween-80
[7] = endpoint: mean survival time, dose: 200.0 mg/kg/injection, schedule: Q01DX001 (ip), vehicle: saline with Tween-80
[8] = endpoint: mean survival time, dose: 200.0 mg/kg/injection, schedule: Q01DX009 (ip), vehicle: saline with Tween-80
[9] = endpoint: mean survival time, dose: 400.0 mg/kg/injection, schedule: Q01DX001 (ip), vehicle: saline with Tween-80
[10] = endpoint: mean survival time, dose: 400.0 mg/kg/injection, schedule: Q01DX009 (ip), vehicle: saline with Tween-80
[11] = endpoint: mean survival time, dose: 100.0 mg/kg/injection, schedule: Q01DX009 (ip), vehicle: saline sonified
[12] = endpoint: mean survival time, dose: 200.0 mg/kg/injection, schedule: Q01DX009 (ip), vehicle: saline sonified
[13] = endpoint: mean survival time, dose: 400.0 mg/kg/injection, schedule: Q01DX009 (ip), vehicle: saline sonified
[14] = endpoint: mean survival time, dose: 75.0 mg/kg/injection, schedule: Q01DX001 (ip), vehicle: saline

COc1ccc2c(c1)n([O-])c1ccccc1[n+]2=O
T/C (endpoint: median survival time, dose: 12.5 mg/kg/injection, schedule: Q01DX005 (ip), vehicle: saline with Tween-80): 116 % of control | T/C (endpoint: median survival time, dose: 12.56 mg/kg/injection, schedule: Q01DX005 (ip), vehicle: saline with Tween-80): 115 % of control | T/C (endpoint: median survival time, dose: 21.6 mg/kg/injection, schedule: Q01DX005 (ip), vehicle: saline with Tween-80): 115 % of control | T/C (endpoint: median survival time, dose: 25.0 mg/kg/injection, schedule: Q01DX005 (ip), vehicle: saline with Tween-80): 116 % of control | T/C (endpoint: median survival time, dose: 36.0 mg/kg/injection, schedule: Q01DX005 (ip), vehicle: saline with Tween-80): 222 % of control and 112 % of control | T/C (endpoint: median survival time, dose: 50.0 mg/kg/injection, schedule: Q01DX005 (ip), vehicle: saline with Tween-80): 117 % of control | T/C (endpoint: median survival time, dose: 60.0 mg/kg/injection, schedule: Q01DX005 (ip), vehicle: saline with Tween-80): 120 % of control and 287 % of control | T/C (endpoint: median survival time, dose: 100.0 mg/kg/injection, schedule: Q01DX005 (ip), vehicle: saline with Tween-80): 300 % of control | T/C (endpoint: median survival time, dose: 166.67 mg/kg/injection, schedule: Q01DX005 (ip), vehicle: saline with Tween-80): 123 % of control

O=c1[nH]cc(COCc2ccccc2)c(=O)[nH]1
T/C [1]: 98 % of control | T/C [2]: 104 % of control | T/C [3]: 96 % of control

C(=C(/C=C/c1ccccc1)/C=C/c1ccccc1)C(=C/c1ccccc1)/c1ccccc1
T/C (endpoint: mean survival time, dose: 12.5 mg/kg/injection, schedule: Q01DX001 (ip), vehicle: saline with Tween-80): 100 % of control | T/C (endpoint: mean survival time, dose: 12.5 mg/kg/injection, schedule: Q01DX009 (ip), vehicle: saline with Tween-80): 91 % of control | T/C (endpoint: mean survival time, dose: 25.0 mg/kg/injection, schedule: Q01DX001 (ip), vehicle: saline with Tween-80): 90 % of control | T/C (endpoint: mean survival time, dose: 50.0 mg/kg/injection, schedule: Q01DX001 (ip), vehicle: saline with Tween-80): 92 % of control | T/C [4]: 86 % of control

CCOC(=O)c1cnc2c(cnn2CC)c1NN=C(C)C
T/C (endpoint: mean survival time, dose: 100.0 mg/kg/injection, schedule: Q04DX003 (ip), vehicle: saline): 105 % of control | T/C (endpoint: mean survival time, dose: 200.0 mg/kg/injection, schedule: Q04DX003 (ip), vehicle: saline): 105 % of control

COC(OC)c1ccc(Cl)nc1
T/C [5]: 98 % of control | T/C [6]: 96 % of control | T/C [7]: 101 % of control | T/C [8]: 94 % of control | T/C [9]: 101 % of control | T/C [10]: 92 % of control

CCOC(=O)/C(=C\c1ccccc1Cl)C(C)=O
T/C (endpoint: mean survival time, dose: 25.0 mg/kg/injection, schedule: Q04DX003 (ip), vehicle: saline with Tween-80): 103 % of control | T/C (endpoint: mean survival time, dose: 50.0 mg/kg/injection, schedule: Q04DX003 (ip), vehicle: saline with Tween-80): 96 % of control | T/C [6]: 103 % of control | T/C [1]: 96 % of control | T/C [8]: 108 % of control | T/C [2]: 107 % of control | T/C [10]: 87 % of control

NC(CC(=O)c1cccc2oc3cc(=O)c4[nH]c(C(=O)O)cc(=O)c4c-3nc12)C(=O)O (centres undefined)
T/C (endpoint: mean survival time, dose: 50.0 mg/kg/injection, schedule: Q01DX001 (ip), vehicle: carboxymethylcellulose (CMC)): 98 % of control | T/C (endpoint: mean survival time, dose: 100.0 mg/kg/injection, schedule: Q01DX001 (ip), vehicle: carboxymethylcellulose (CMC)): 95 % of control | T/C (endpoint: mean survival time, dose: 200.0 mg/kg/injection, schedule: Q01DX001 (ip), vehicle: carboxymethylcellulose (CMC)): 95 % of control | T/C (endpoint: mean survival time, dose: 400.0 mg/kg/injection, schedule: Q01DX001 (ip), vehicle: carboxymethylcellulose (CMC)): 101 % of control

O=C(Nc1cc(Cl)c(Cl)cc1Cl)C1CC1
T/C [4]: 119 % of control | T/C [6]: 101 % of control | T/C [8]: 101 % of control

O=C(CC(=O)C(F)(F)F)c1ccco1.O=C(CC(=O)C(F)(F)F)c1ccco1.O=C(CC(=O)C(F)(F)F)c1ccco1.[Eu]
T/C [1]: 94 % of control | T/C [2]: 94 % of control | T/C [3]: 89 % of control

Cc1ccc(NC(=O)Oc2cc(C)c(Cl)cc2C)c([N+](=O)[O-])c1
T/C (endpoint: mean survival time, dose: 100.0 mg/kg/injection, schedule: Q01DX009 (ip), vehicle: Klucel (hydroxypropylcellulose) (HPC)): 106 % of control | T/C (endpoint: mean survival time, dose: 200.0 mg/kg/injection, schedule: Q01DX009 (ip), vehicle: Klucel (hydroxypropylcellulose) (HPC)): 95 % of control | T/C (endpoint: mean survival time, dose: 400.0 mg/kg/injection, schedule: Q01DX009 (ip), vehicle: Klucel (hydroxypropylcellulose) (HPC)): 92 % of control

O=S(=O)(Nc1ccc(NS(=O)(=O)c2ccccc2)c(N2CCOCC2)c1)c1ccccc1
T/C [5]: 101 % of control | T/C [7]: 101 % of control | T/C [9]: 92 % of control

CC1OC1C(=O)C1(O)C(C)C(O)C23OC2(C(O)c2c(O)cccc2C3=O)C1O (centres undefined)
T/C (endpoint: mean survival time, dose: 0.5 mg/kg/injection, schedule: Q01DX009 (ip), vehicle: Klucel (hydroxypropylcellulose) (HPC)): 98 % of control and 101 % of control | T/C (endpoint: mean survival time, dose: 1.0 mg/kg/injection, schedule: Q01DX009 (ip), vehicle: Klucel (hydroxypropylcellulose) (HPC)): 98 % of control and 102 % of control (2×) | T/C (endpoint: mean survival time, dose: 2.0 mg/kg/injection, schedule: Q01DX009 (ip), vehicle: Klucel (hydroxypropylcellulose) (HPC)): 104 % of control and 105 % of control and 107 % of control | T/C (endpoint: mean survival time, dose: 4.0 mg/kg/injection, schedule: Q01DX009 (ip), vehicle: Klucel (hydroxypropylcellulose) (HPC)): 114 % of control and 102 % of control and 103 % of control | T/C (endpoint: mean survival time, dose: 8.0 mg/kg/injection, schedule: Q01DX009 (ip), vehicle: Klucel (hydroxypropylcellulose) (HPC)): 120 % of control and 104 % of control and 109 % of control | T/C (endpoint: mean survival time, dose: 16.0 mg/kg/injection, schedule: Q01DX009 (ip), vehicle: Klucel (hydroxypropylcellulose) (HPC)): 104 % of control

O=C(Nc1ccc([N+](=O)[O-])cc1Cl)OCCc1ccccn1
T/C [4]: 90 % of control | T/C [5]: 98 % of control | T/C [1]: 93 % of control | T/C [7]: 95 % of control | T/C [2]: 95 % of control | T/C [9]: 93 % of control | T/C [3]: 90 % of control

NC(=O)COc1c(I)cc(I)cc1I
T/C [11]: 101 % of control | T/C [1]: 98 % of control | T/C [12]: 92 % of control | T/C [2]: 98 % of control | T/C [13]: 89 % of control | T/C [3]: 96 % of control

CN(C)N=C1CCCCCC1
T/C [14]: 102 % of control | T/C (endpoint: mean survival time, dose: 150.0 mg/kg/injection, schedule: Q01DX001 (ip), vehicle: saline): 98 % of control

O=C1OC(c2ccccc2)(c2ccccn2)c2ccccc21 (centres undefined)
T/C [1]: 90 % of control | T/C [2]: 88 % of control | T/C [3]: 91 % of control

CCC1(O)C(=O)OCc2c1cc1n(c2=O)Cc2cc3ccc(C=O)cc3nc2-1 (centres undefined)
T/C (endpoint: median survival time, dose: 4.0 mg/kg/injection, schedule: Q04DX002 (ip), vehicle: saline with Tween-80): 98 % of control | T/C (endpoint: median survival time, dose: 8.0 mg/kg/injection, schedule: Q04DX002 (ip), vehicle: saline with Tween-80): 96 % of control | T/C (endpoint: median survival time, dose: 16.0 mg/kg/injection, schedule: Q04DX002 (ip), vehicle: saline with Tween-80): 98 % of control | T/C (endpoint: median survival time, dose: 32.0 mg/kg/injection, schedule: Q04DX002 (ip), vehicle: saline with Tween-80): 102 % of control

CC(C)C(Br)C(N)=O (centres undefined)
T/C [11]: 97 % of control | T/C [12]: 89 % of control | T/C [13]: 87 % of control

CCCCC(c1ccccc1)P(=O)(OCC)OCC (centres undefined)
T/C (endpoint: mean survival time, dose: 25.0 mg/kg/injection, schedule: Q01DX009 (ip), vehicle: saline with Tween-80): 97 % of control | T/C [4]: 103 % of control | T/C [6]: 102 % of control and 111 % of control

O=Cc1ccc(O)c2ncccc12
T/C (endpoint: mean survival time, dose: 75.0 mg/kg/injection, schedule: Q01DX001 (ip), vehicle: other): 101 % of control | T/C (endpoint: mean survival time, dose: 150.0 mg/kg/injection, schedule: Q01DX001 (ip), vehicle: other): 95 % of control | T/C (endpoint: mean survival time, dose: 300.0 mg/kg/injection, schedule: Q01DX001 (ip), vehicle: other): 110 % of control

CCOC(=O)Nc1cc(C(F)(F)F)cc(C(F)(F)F)c1
T/C [6]: 94 % of control | T/C [8]: 94 % of control | T/C [10]: 96 % of control

O=c1oc(-c2cccc([N+](=O)[O-])c2)nc2ccccc12
T/C [1]: 100 % of control | T/C [2]: 88 % of control

C=C1C(=O)OC2CCN3CC=C(COC(=O)C(C)(O)C4(CO4)C1C)C23 (centres undefined)
T/C [14]: 107 % of control

CCOn1nc(-c2cccc3ccccc23)oc1=O
T/C [5]: 91 % of control | T/C [7]: 95 % of control | T/C [9]: 95 % of control
